Results as given in the NIST ThermoML archive (doi:10.1021/je049685z).
Numbers after ± are expanded uncertainties.

Experiments:
[1] = Liquid
[2] = xn = mol fraction of the nth substance listed; conditions: Liquid, x1 = 1

Question: Which mass density ([1]; 303.15 K, 100 kPa) does the source give for `CCCO` [propan-1-ol] here?
Answer: Its mass density is 795.6 ± 0.4 kg/m3.

Question: And the mass density ([1]; 303.15 K, 5000 kPa)?
Answer: The mass density was 799.5 ± 0.4 kg/m3.

Question: And the mass density ([1]; 303.15 K, 10000 kPa)?
Answer: The mass density was 803.4 ± 0.5 kg/m3.

Question: And the mass density ([1]; 303.15 K, 15000 kPa)?
Answer: Its mass density is 807 ± 0.6 kg/m3.

Question: What about the mass density ([1]; 303.15 K, 20000 kPa) of the same compound?
Answer: The mass density was 810.5 ± 0.7 kg/m3.

Question: And the mass density ([1]; 303.15 K, 25000 kPa)?
Answer: The mass density was 813.9 ± 0.8 kg/m3.

Question: What about the mass density ([1]; 303.15 K, 30000 kPa) of the same compound?
Answer: Its mass density is 817.2 ± 0.9 kg/m3.

Question: And the mass density ([1]; 313.15 K, 100 kPa)?
Answer: Its mass density is 787.6 ± 0.4 kg/m3.

Question: What about the mass density ([1]; 313.15 K, 5000 kPa) of the same compound?
Answer: Its mass density is 791.6 ± 0.5 kg/m3.

Question: And the mass density ([1]; 313.15 K, 10000 kPa)?
Answer: The mass density was 795.7 ± 0.5 kg/m3.

Question: What about the mass density ([1]; 313.15 K, 15000 kPa) of the same compound?
Answer: Its mass density is 799.5 ± 0.6 kg/m3.

Question: What about the mass density ([1]; 313.15 K, 20000 kPa) of the same compound?
Answer: Its mass density is 803.2 ± 0.7 kg/m3.

Question: What about the mass density ([1]; 313.15 K, 25000 kPa) of the same compound?
Answer: The mass density was 806.7 ± 0.8 kg/m3.

Question: What about the mass density ([1]; 313.15 K, 30000 kPa) of the same compound?
Answer: Its mass density is 810.1 ± 0.9 kg/m3.

Question: What about the mass density ([1]; 323.15 K, 100 kPa) of the same compound?
Answer: The mass density was 779.1 ± 0.4 kg/m3.

Question: And the mass density ([1]; 323.15 K, 5000 kPa)?
Answer: Its mass density is 783.4 ± 0.5 kg/m3.

Question: And the mass density ([1]; 323.15 K, 10000 kPa)?
Answer: The mass density was 787.7 ± 0.6 kg/m3.

Question: What about the mass density ([1]; 323.15 K, 15000 kPa) of the same compound?
Answer: Its mass density is 791.7 ± 0.7 kg/m3.

Question: And the mass density ([1]; 323.15 K, 20000 kPa)?
Answer: The mass density was 795.6 ± 0.7 kg/m3.

Question: And the mass density ([1]; 323.15 K, 25000 kPa)?
Answer: Its mass density is 799.3 ± 0.8 kg/m3.

Question: And the mass density ([1]; 323.15 K, 30000 kPa)?
Answer: The mass density was 802.9 ± 0.9 kg/m3.

Question: And the mass density ([1]; 333.15 K, 100 kPa)?
Answer: The mass density was 770.6 ± 0.4 kg/m3.

Question: And the mass density ([1]; 333.15 K, 5000 kPa)?
Answer: The mass density was 775.1 ± 0.5 kg/m3.

Question: What about the mass density ([1]; 333.15 K, 10000 kPa) of the same compound?
Answer: The mass density was 779.6 ± 0.6 kg/m3.

Question: And the mass density ([1]; 333.15 K, 15000 kPa)?
Answer: The mass density was 783.9 ± 0.7 kg/m3.

Question: And the mass density ([1]; 333.15 K, 20000 kPa)?
Answer: The mass density was 787.9 ± 0.8 kg/m3.

Question: What about the mass density ([1]; 333.15 K, 25000 kPa) of the same compound?
Answer: The mass density was 791.8 ± 0.9 kg/m3.

Question: And the mass density ([1]; 333.15 K, 30000 kPa)?
Answer: Its mass density is 795.5 ± 1 kg/m3.

Question: Which mass density ([2]; 303.15 K, 100 kPa) does the source give for `CCCO` [propan-1-ol] + Cc1ccccc1 here?
Answer: Its mass density is 795.6 ± 0.4 kg/m3.

Question: And the mass density ([2]; 303.15 K, 5000 kPa)?
Answer: Its mass density is 799.5 ± 0.4 kg/m3.

Question: And the mass density ([2]; 303.15 K, 10000 kPa)?
Answer: The mass density was 803.4 ± 0.5 kg/m3.

Question: And the mass density ([2]; 303.15 K, 15000 kPa)?
Answer: Its mass density is 807 ± 0.6 kg/m3.

Question: What about the mass density ([2]; 303.15 K, 20000 kPa) of the same compound?
Answer: The mass density was 810.5 ± 0.7 kg/m3.

Question: What about the mass density ([2]; 303.15 K, 25000 kPa) of the same compound?
Answer: The mass density was 813.9 ± 0.8 kg/m3.

Question: What about the mass density ([2]; 303.15 K, 30000 kPa) of the same compound?
Answer: Its mass density is 817.2 ± 0.9 kg/m3.

Question: And the mass density ([2]; 313.15 K, 100 kPa)?
Answer: The mass density was 787.6 ± 0.4 kg/m3.

Question: And the mass density ([2]; 313.15 K, 5000 kPa)?
Answer: The mass density was 791.6 ± 0.5 kg/m3.

Question: And the mass density ([2]; 313.15 K, 10000 kPa)?
Answer: The mass density was 795.7 ± 0.5 kg/m3.

Question: And the mass density ([2]; 313.15 K, 15000 kPa)?
Answer: Its mass density is 799.5 ± 0.6 kg/m3.

Question: And the mass density ([2]; 313.15 K, 20000 kPa)?
Answer: Its mass density is 803.2 ± 0.7 kg/m3.

Question: And the mass density ([2]; 313.15 K, 25000 kPa)?
Answer: The mass density was 806.7 ± 0.8 kg/m3.

Question: And the mass density ([2]; 313.15 K, 30000 kPa)?
Answer: Its mass density is 810.1 ± 0.9 kg/m3.

Question: And the mass density ([2]; 323.15 K, 100 kPa)?
Answer: The mass density was 779.1 ± 0.4 kg/m3.

Question: And the mass density ([2]; 323.15 K, 5000 kPa)?
Answer: Its mass density is 783.4 ± 0.5 kg/m3.

Question: And the mass density ([2]; 323.15 K, 10000 kPa)?
Answer: The mass density was 787.7 ± 0.6 kg/m3.

Question: And the mass density ([2]; 323.15 K, 15000 kPa)?
Answer: The mass density was 791.7 ± 0.7 kg/m3.

Question: What about the mass density ([2]; 323.15 K, 20000 kPa) of the same compound?
Answer: The mass density was 795.6 ± 0.7 kg/m3.

Question: And the mass density ([2]; 323.15 K, 25000 kPa)?
Answer: The mass density was 799.3 ± 0.8 kg/m3.

Question: What about the mass density ([2]; 323.15 K, 30000 kPa) of the same compound?
Answer: Its mass density is 802.9 ± 0.9 kg/m3.

Question: What about the mass density ([2]; 333.15 K, 100 kPa) of the same compound?
Answer: Its mass density is 770.6 ± 0.4 kg/m3.

Question: What about the mass density ([2]; 333.15 K, 5000 kPa) of the same compound?
Answer: Its mass density is 775.1 ± 0.5 kg/m3.

Question: And the mass density ([2]; 333.15 K, 10000 kPa)?
Answer: The mass density was 779.6 ± 0.6 kg/m3.

Question: What about the mass density ([2]; 333.15 K, 15000 kPa) of the same compound?
Answer: Its mass density is 783.9 ± 0.7 kg/m3.

Question: What about the mass density ([2]; 333.15 K, 20000 kPa) of the same compound?
Answer: The mass density was 787.9 ± 0.8 kg/m3.

Question: And the mass density ([2]; 333.15 K, 25000 kPa)?
Answer: The mass density was 791.8 ± 0.9 kg/m3.

Question: What about the mass density ([2]; 333.15 K, 30000 kPa) of the same compound?
Answer: Its mass density is 795.5 ± 1 kg/m3.

Question: Which mass density ([1]; 303.15 K, 100 kPa) does the source give for `Cc1ccccc1` [toluene] here?
Answer: The mass density was 857.4 ± 0.3 kg/m3.

Question: And the mass density ([1]; 303.15 K, 5000 kPa)?
Answer: Its mass density is 861.3 ± 0.3 kg/m3.

Question: What about the mass density ([1]; 303.15 K, 10000 kPa) of the same compound?
Answer: Its mass density is 865.1 ± 0.4 kg/m3.

Question: And the mass density ([1]; 303.15 K, 15000 kPa)?
Answer: The mass density was 868.7 ± 0.4 kg/m3.

Question: What about the mass density ([1]; 303.15 K, 20000 kPa) of the same compound?
Answer: The mass density was 872.3 ± 0.5 kg/m3.

Question: What about the mass density ([1]; 303.15 K, 25000 kPa) of the same compound?
Answer: The mass density was 875.6 ± 0.6 kg/m3.

Question: And the mass density ([1]; 303.15 K, 30000 kPa)?
Answer: The mass density was 878.9 ± 0.6 kg/m3.

Question: And the mass density ([1]; 313.15 K, 100 kPa)?
Answer: The mass density was 848.1 ± 0.3 kg/m3.

Question: And the mass density ([1]; 313.15 K, 5000 kPa)?
Answer: The mass density was 852.1 ± 0.3 kg/m3.

Question: And the mass density ([1]; 313.15 K, 10000 kPa)?
Answer: Its mass density is 856.2 ± 0.4 kg/m3.

Question: What about the mass density ([1]; 313.15 K, 15000 kPa) of the same compound?
Answer: Its mass density is 860 ± 0.5 kg/m3.

Question: What about the mass density ([1]; 313.15 K, 20000 kPa) of the same compound?
Answer: The mass density was 863.7 ± 0.5 kg/m3.

Question: What about the mass density ([1]; 313.15 K, 25000 kPa) of the same compound?
Answer: Its mass density is 867.2 ± 0.6 kg/m3.

Question: And the mass density ([1]; 313.15 K, 30000 kPa)?
Answer: Its mass density is 870.7 ± 0.6 kg/m3.

Question: And the mass density ([1]; 323.15 K, 100 kPa)?
Answer: The mass density was 838.6 ± 0.3 kg/m3.

Question: And the mass density ([1]; 323.15 K, 5000 kPa)?
Answer: The mass density was 842.9 ± 0.3 kg/m3.

Question: And the mass density ([1]; 323.15 K, 10000 kPa)?
Answer: Its mass density is 847.2 ± 0.4 kg/m3.

Question: And the mass density ([1]; 323.15 K, 15000 kPa)?
Answer: The mass density was 851.2 ± 0.5 kg/m3.

Question: What about the mass density ([1]; 323.15 K, 20000 kPa) of the same compound?
Answer: Its mass density is 855.1 ± 0.5 kg/m3.

Question: And the mass density ([1]; 323.15 K, 25000 kPa)?
Answer: Its mass density is 858.9 ± 0.6 kg/m3.

Question: And the mass density ([1]; 323.15 K, 30000 kPa)?
Answer: The mass density was 862.5 ± 0.7 kg/m3.

Question: What about the mass density ([1]; 333.15 K, 100 kPa) of the same compound?
Answer: The mass density was 829.2 ± 0.3 kg/m3.

Question: What about the mass density ([1]; 333.15 K, 5000 kPa) of the same compound?
Answer: The mass density was 833.7 ± 0.4 kg/m3.

Question: What about the mass density ([1]; 333.15 K, 10000 kPa) of the same compound?
Answer: Its mass density is 838.2 ± 0.4 kg/m3.

Question: And the mass density ([1]; 333.15 K, 15000 kPa)?
Answer: Its mass density is 842.5 ± 0.5 kg/m3.

Question: What about the mass density ([1]; 333.15 K, 20000 kPa) of the same compound?
Answer: The mass density was 846.6 ± 0.6 kg/m3.

Question: What about the mass density ([1]; 333.15 K, 25000 kPa) of the same compound?
Answer: The mass density was 850.5 ± 0.6 kg/m3.

Question: What about the mass density ([1]; 333.15 K, 30000 kPa) of the same compound?
Answer: The mass density was 854.3 ± 0.7 kg/m3.
